Test results reported in patent publication US10065990B2, “Cyclic peptide compound, and preparation method, pharmaceutical composition and use thereof” (HANGZHOU GUANYU BIO-MEDICAL CO., LTD, priority 2013, dated 2018).
Read-outs that look alike come from different tables or passages of the source.

Tests used:
[1] = target: T1, HDAC7 (Homo sapiens, UniProt Q8WUI4); assay: HDAC biochemical activity measurement (fluorescent substrate deacetylation);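 further: fluorogenic deacetylation assay using acetyl-lysine substrate at 20 µM, enzyme and compound incubated 30 min at 37 °C, then developer added, fluorescence read at 360/460 nm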; settings: HDAC7; 37° C. 30 minutes
T1 sequence (Q8WUI4 1-952): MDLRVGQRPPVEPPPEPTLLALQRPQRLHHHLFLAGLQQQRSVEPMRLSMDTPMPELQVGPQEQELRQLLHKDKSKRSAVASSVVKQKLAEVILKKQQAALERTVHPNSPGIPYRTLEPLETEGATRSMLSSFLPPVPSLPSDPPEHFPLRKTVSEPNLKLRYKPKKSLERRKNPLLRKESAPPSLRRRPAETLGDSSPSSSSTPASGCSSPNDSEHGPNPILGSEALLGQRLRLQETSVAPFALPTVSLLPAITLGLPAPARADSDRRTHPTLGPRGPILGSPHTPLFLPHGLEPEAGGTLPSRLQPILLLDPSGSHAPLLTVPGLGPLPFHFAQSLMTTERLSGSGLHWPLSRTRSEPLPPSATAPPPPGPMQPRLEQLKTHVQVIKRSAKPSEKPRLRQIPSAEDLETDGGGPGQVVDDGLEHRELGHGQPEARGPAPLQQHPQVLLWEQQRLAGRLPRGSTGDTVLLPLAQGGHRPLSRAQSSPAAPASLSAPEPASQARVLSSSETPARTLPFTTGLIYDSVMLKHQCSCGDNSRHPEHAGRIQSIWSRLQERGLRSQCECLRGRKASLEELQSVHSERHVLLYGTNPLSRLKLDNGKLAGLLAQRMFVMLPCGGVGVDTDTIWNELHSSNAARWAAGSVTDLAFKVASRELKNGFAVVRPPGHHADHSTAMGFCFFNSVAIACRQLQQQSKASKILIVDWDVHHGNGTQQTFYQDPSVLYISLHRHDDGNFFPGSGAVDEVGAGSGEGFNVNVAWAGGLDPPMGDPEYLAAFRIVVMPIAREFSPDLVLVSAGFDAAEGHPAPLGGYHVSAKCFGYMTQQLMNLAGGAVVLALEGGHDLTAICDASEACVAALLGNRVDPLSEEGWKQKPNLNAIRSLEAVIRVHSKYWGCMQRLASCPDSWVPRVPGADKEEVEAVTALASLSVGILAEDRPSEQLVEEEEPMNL

[2] = system: PANC-1 (Pac-1, human pancreatic cancer cells); assay: MTT cancer cell growth inhibition; type: cell-based; settings: Homo sapiens, PANC-1, 72 h, MTT, 72 hours incubation, read-out: GI50 PAN
How it was run: (§1)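 Cells seeded at 1500/well in DMEM or RPMI 1640 with 10% FBS, incubated overnight, then exposed to compound at 10^−5 to 10^−10 M final in triplicate for 72 h at 37° C, 5% CO2. MTT added for 4 h, formazan dissolved in DMSO, absorbance read at 570 nm; GI50 derived from viability.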

[3] = system: BGC-823 (human gastric cancer cells); assay: MTT cancer cell growth inhibition; type: cell-based; settings: Homo sapiens, BGC-823, 72 h, MTT, 72 hours incubation, read-out: GI50 BG
How it was run: as §1

[4] = system: SGC-7901 (human gastric cancer cells); assay: MTT cancer cell growth inhibition; type: cell-based; settings: Homo sapiens, SGC-7901, 72 h, MTT, 72 hours incubation, SGC-7901 cells; read-out: GI50 SGC-7901
How it was run: as §1

[5] = system: MOLT-4 (human acute lymphoblastic leukemia cells); assay: MTT cancer cell growth inhibition; type: cell-based; settings: Homo sapiens, MOLT-4, 72 h, MTT, 72 hours incubation, read-out: GI50 Mol
How it was run: as §1

[6] = system: Hela (human cervical cancer cells); assay: MTT cancer cell growth inhibition; type: cell-based; settings: Homo sapiens, HeLa, 72 h, MTT, 72 hours incubation, read-out: GI50 Hela
How it was run: as §1

[7] = system: DU145 (human prostate cancer cells); assay: MTT cancer cell growth inhibition; type: cell-based; settings: Homo sapiens, DU-145, 72 h, MTT, 72 hours incubation, read-out: GI50 Du1
How it was run: as §1

[8] = system: U937 (human leukemia cells); assay: MTT cancer cell growth inhibition; type: cell-based; settings: Homo sapiens, U-937, 72 h, MTT, 72 hours incubation, read-out: GI50 U93
How it was run: as §1

[9] = system: HT1080 (human fibrosarcoma cells); assay: MTT cancer cell growth inhibition; type: cell-based; settings: Homo sapiens, HT-1080, 72 h, MTT, 72 hours incubation, read-out: GI50 HT1
How it was run: as §1

[10] = system: lncap (prostate cancer cells); assay: MTT cancer cell growth inhibition; type: cell-based; settings: Homo sapiens, LNCaP, 72 h, MTT, 72 hours incubation, read-out: GI50 lnca
How it was run: as §1

[11] = system: A549 (human lung cancer cells); assay: MTT cancer cell growth inhibition; type: cell-based; settings: Homo sapiens, A549, 72 h, MTT, 72 hours incubation, read-out: GI50 A54
How it was run: as §1

[12] = system: MDA-MB-231 (breast cancer cells); assay: MTT cancer cell growth inhibition; type: cell-based; settings: Homo sapiens, MDA-MB-231, 72 h, read-out: GI50 MDA-MB-231, MTT, 72 hours incubation, MDA-MB-231 cells
How it was run: as §1

[13] = system: Bel-7402 (human hepatoma cells); assay: MTT cancer cell growth inhibition; type: cell-based; settings: Homo sapiens, Bel-7402, 72 h, MTT, 72 hours incubation, Bel-7402 cells; read-out: GI50 Bel-7402
How it was run: as §1

[14] = system: KBM-5 (human chronic myelogenous leukemia); assay: MTT cancer cell growth inhibition; type: cell-based; settings: Homo sapiens, KBM5, 72 h, MTT, 72 hours incubation, KBM-5 cells; read-out: GI50 KBM-5
How it was run: as §1

[15] = system: K562 (human leukemia cells); assay: MTT cancer cell growth inhibition; type: cell-based; settings: Homo sapiens, K562, 72 h, MTT, 72 hours incubation, K562 cells; read-out: GI50 K562
How it was run: as §1

[16] = system: KBM5-T315I (human chronic myelogenous leukemia); assay: MTT cancer cell growth inhibition; type: cell-based; settings: Homo sapiens, 72 h, MTT, 72 hours incubation, KBM5-T315I cells; read-out: GI50 KBM5-T315I
How it was run: as §1

[17] = system: N-87 (human gastric cancer cells); assay: MTT cancer cell growth inhibition; type: cell-based; settings: Homo sapiens, 72 h, MTT, 72 hours incubation, N-87 cells; read-out: GI50 N-87
How it was run: as §1

[18] = system: HCC827 (human non-small cell lung cancer cells); assay: MTT cancer cell growth inhibition; type: cell-based; settings: Homo sapiens, HCC827, 72 h, MTT, 72 hours incubation, HCC827 cells; read-out: GI50 HCC827
How it was run: as §1

[19] = system: Huh-7 (human hepatoma cells); assay: MTT cancer cell growth inhibition; type: cell-based; settings: Homo sapiens, Huh-7, 72 h, MTT, 72 hours incubation, Huh-7 cells; read-out: GI50 Huh-7
How it was run: as §1

[20] = system: H1975 (non-small cell lung adenocarcinoma); assay: MTT cancer cell growth inhibition; type: cell-based; settings: Homo sapiens, NCI-H1975, 72 h, MTT, 72 hours incubation, H1975 cells; read-out: GI50 H1975
How it was run: as §1

[21] = system: MCF-7 (human breast cancer cells); assay: MTT cancer cell growth inhibition; type: cell-based; settings: Homo sapiens, MCF7, 72 h, 72 hours incubation, read-out: GI50 MCF
How it was run: as §1

| IC50 HDAC7 [1] | GI50 [4] [nM] | GI50 [12] [nM] | GI50 [13] [nM] | GI50 [14] [nM] | GI50 [15] [nM] | GI50 [16] [nM] | GI50 [17] [nM] | GI50 [18] [nM] | GI50 [19] [nM] | GI50 [20] [nM] | GI50 [2] [nM] | GI50 [3] [nM] | GI50 [5] [nM] | GI50 [6] [nM] | GI50 [7] [nM] | GI50 [8] [nM] | GI50 [9] [nM] | GI50 [10] [nM] | GI50 [11] [nM] | Structure (SMILES) | further results |
| --- | --- | --- | --- | --- | --- | --- | --- | --- | --- | --- | --- | --- | --- | --- | --- | --- | --- | --- | --- | --- | --- |
| no activity | 28 | 37 | 82 | 61 | 38 | 34 | 37 | 82 | 37 | 39 | 80 | 30 | 30 | 60 | 30 | 30 | 80 | 30 | 20 | C=C1NC(=O)c2ccc(F)c(n2)CNC(=O)C[C@@H](/C=C/CCSC(C)=O)OC(=O)[C@H](C(C)C)NC1=O [Compound 86] | GI50 [21]: 30 nM |
| no activity | 57 | 43 | 62 | 42 | 22 | 29 | 15 | 62 | 43 | 29 | 60 | 10 | 40 | 40 | 20 | 20 | 60 | 40 | 50 | C=C1NC(=O)c2ccc(F)c(n2)CNC(=O)C[C@@H](/C=C/CCSC(C)=O)OC(=O)[C@H](C)NC1=O [Compound 92] | GI50 [21]: 20 nM |

Further lines, the molecule ahead of its results:

| Structure (SMILES) | IC50 HDAC7 [1] | GI50 [4] [nM] | GI50 [12] [nM] | GI50 [13] [nM] | GI50 [14] [nM] | GI50 [15] [nM] | GI50 [16] [nM] | GI50 [17] [nM] | GI50 [18] [nM] | GI50 [19] [nM] | GI50 [20] [nM] | GI50 [2] [nM] | GI50 [3] [nM] | GI50 [5] [nM] | GI50 [6] [nM] | GI50 [7] [nM] | GI50 [8] [nM] | GI50 [9] [nM] | GI50 [10] [nM] | GI50 [11] [nM] | further results |
| --- | --- | --- | --- | --- | --- | --- | --- | --- | --- | --- | --- | --- | --- | --- | --- | --- | --- | --- | --- | --- | --- |
| C/C=C1\NC(=O)c2nc(ccc2SC)CNC(=O)C[C@@H](/C=C/CCSC(=O)CC)OC(=O)[C@H](C(C)C)NC1=O [Compound 162] | no activity | 78 | 79 | 35 | 42 | 73 | 16 | 18 | 51 | 81 | 49 | – | – | – | – | – | – | – | – | – | GI50 ([2]; PANC-1 cells): 70 nM; GI50 ([3]; BGC-823 cells): 50 nM; GI50 ([5]; MOLT-4 cells): 70 nM; GI50 ([6]; Hela cells): 80 nM; GI50 ([7]; DU145 cells): 10 nM; GI50 ([8]; U937 cells): 50 nM; GI50 ([9]; HT1080 cells): 70 nM; GI50 ([10]; lncap cells): 50 nM; GI50 ([11]; A549 cells): 90 nM; GI50 ([21]; MCF-7 cells): 40 nM |
| C/C=C1\NC(=O)c2ccc(SC)c(n2)CNC(=O)C[C@@H](/C=C/CCSC(C)=O)OC(=O)[C@H](Cc2ccccc2)NC1=O [Compound 188] | no activity | 71 | 23 | 42 | 18 | 36 | 36 | 28 | 29 | 79 | 53 | – | – | – | – | – | – | – | – | – | GI50 ([2]; PANC-1 cells): 50 nM; GI50 ([3]; BGC-823 cells): 30 nM; GI50 ([5]; MOLT-4 cells): 30 nM; GI50 ([6]; Hela cells): 50 nM; GI50 ([7]; DU145 cells): 30 nM; GI50 ([8]; U937 cells): 40 nM; GI50 ([9]; HT1080 cells): 80 nM; GI50 ([10]; lncap cells): 60 nM; GI50 ([11]; A549 cells): 20 nM; GI50 ([21]; MCF-7 cells): 30 nM |
| C/C=C1\NC(=O)c2cccc(n2)CNC(=O)C[C@@H](/C=C/CCS)OC(=O)[C@H](Cc2cccc3ccccc23)NC1=O [Compound 123] | no activity | 51 | 39 | 27 | 68 | 36 | 67 | 62 | 69 | 35 | 21 | 40 | 40 | 90 | 90 | 60 | 60 | 90 | 90 | 60 | GI50 [21]: 60 nM |
